Results reported in paper PMC8402619 (Viruses, 2021).

Tests used:
OATP1B1 = target: T1, OATP1B1 (Homo sapiens, UniProt Q9Y6L6); assay: Inhibition of transporter-mediated probe uptake in HEK293-OATP1B1 cells; type: in vitro ADME
T1 construct: host or cells: HEK293
T1 sequence (Q9Y6L6 1-691): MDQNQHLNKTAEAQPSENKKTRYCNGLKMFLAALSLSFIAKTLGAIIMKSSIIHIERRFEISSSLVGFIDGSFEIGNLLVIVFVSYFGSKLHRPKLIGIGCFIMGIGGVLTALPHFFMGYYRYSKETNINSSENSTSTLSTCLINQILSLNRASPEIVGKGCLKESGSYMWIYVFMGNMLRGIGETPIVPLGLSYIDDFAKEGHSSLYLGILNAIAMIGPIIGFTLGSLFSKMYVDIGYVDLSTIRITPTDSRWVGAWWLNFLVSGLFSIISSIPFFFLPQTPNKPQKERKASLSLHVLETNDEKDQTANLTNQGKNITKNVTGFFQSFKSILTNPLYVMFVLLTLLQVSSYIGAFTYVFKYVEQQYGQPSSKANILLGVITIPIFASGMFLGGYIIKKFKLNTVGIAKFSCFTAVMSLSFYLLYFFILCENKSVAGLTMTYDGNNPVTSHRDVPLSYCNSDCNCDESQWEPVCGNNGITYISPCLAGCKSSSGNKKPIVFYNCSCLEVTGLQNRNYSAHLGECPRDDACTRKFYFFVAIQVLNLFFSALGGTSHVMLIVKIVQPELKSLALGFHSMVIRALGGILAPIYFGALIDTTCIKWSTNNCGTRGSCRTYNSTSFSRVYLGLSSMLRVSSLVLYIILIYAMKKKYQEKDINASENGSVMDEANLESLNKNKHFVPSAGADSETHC

[1] = Projected human exposure for a 60 mg oral dose
[2] = Distribution between red blood cells and plasma in human blood; type: in vitro ADME
MATE1 = target: T2, MATE1 (Homo sapiens, UniProt Q96FL8); assay: Inhibition of transporter-mediated probe uptake in CHO-K1-MATE1 cells; type: in vitro ADME
T2 construct: expressed in transfected cells; host or cells: CHO-K1
T2 sequence (Q96FL8 1-570): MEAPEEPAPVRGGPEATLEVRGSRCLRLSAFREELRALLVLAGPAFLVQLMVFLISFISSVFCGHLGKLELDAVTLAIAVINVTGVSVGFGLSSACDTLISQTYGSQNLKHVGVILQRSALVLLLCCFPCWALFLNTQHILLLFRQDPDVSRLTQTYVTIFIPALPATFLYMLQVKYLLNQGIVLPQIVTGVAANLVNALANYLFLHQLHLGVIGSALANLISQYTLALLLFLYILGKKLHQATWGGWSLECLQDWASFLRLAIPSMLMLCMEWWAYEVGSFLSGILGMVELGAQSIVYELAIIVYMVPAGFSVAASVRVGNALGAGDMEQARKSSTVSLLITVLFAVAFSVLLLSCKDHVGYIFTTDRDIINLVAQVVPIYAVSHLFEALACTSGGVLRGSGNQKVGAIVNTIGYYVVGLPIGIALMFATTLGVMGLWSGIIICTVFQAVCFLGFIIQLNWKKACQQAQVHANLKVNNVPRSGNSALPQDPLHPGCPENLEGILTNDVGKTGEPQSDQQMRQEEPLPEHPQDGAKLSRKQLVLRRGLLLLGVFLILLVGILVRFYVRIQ

Structure (SMILES): C#C[C@]1(CO)O[C@@H](n2cnc3c(N)nc(F)nc32)C[C@@H]1O [Islatravir, 4′-Ethynyl-2-fluoro-2′-deoxyadenosine]
- IC50 (OATP1B1; OATP1B1-mediated uptake of pitavastatin, read-out: Islatravir IC50): > 300 µM
- Maximum Unbound Inlet Concentration (Iin,max,u) to IC50 Ratio (OATP1B1; OATP1B1, 60 mg dose): <0.035
- DDI Potential (OATP1B1; OATP1B1 inhibition, FDA, EMA, PMDA guidance): Low risk
- projected maximum free concentration at the liver inlet [1]: approximately 10 µM
- concentration dependence of blood:plasma partitioning ([2]; 0.01 to 10 µM): did not exhibit concentration-dependent partitioning
- blood plasma ratio at 60 min, 0.1 µM ([2]; whole blood, human blood, 0.1 µM, ± standard error, read-out: mean blood:plasma concentration ratio): 1.3
- IC50 (MATE1; MATE1, metformin uptake, read-out: Islatravir IC50): > 75 µM
- Maximum Unbound Plasma Concentration (Imax,u) to IC50 Ratio (MATE1; MATE1, 60 mg, Cmax 1.01 µM, fu,p 0.96): <0.013 µM
- DDI Potential (MATE1; MATE1 inhibition, FDA, EMA, PMDA guidance): Low risk
